The subject of assay [1] is HT-29 [B-Raf V600E mutant]. Briefly: Anti-proliferative activity, SRB assay, 72 hours. Type of assay: cell-based. The conditions noted are these: Homo sapiens, read-out: CELLULAR IC50 [μM] HT-29 [B-Raf V600E mutant]. The procedure:
We observed the surprising finding that compounds of the invention were useful in inhibiting proliferation of HT-29 tumor cells (see Table 3).
(§1) Cells were exposed to the test compounds at various concentrations appropriate to determine an IC50, for 72 hours, and cell proliferation was measured using the SRB assay according to Shekan et al (J Natl Cancer Inst (1990) 82, 1107-112) in order to estimate the IC50 values shown in Table 3.
(§2) Briefly, cells were plated in 96 well dishes 24 hours prior to compound addition at the densities specified in Table 11.1.
(§3) The assay was terminated with the addition of ice cold 10% TCA after growth medium has been removed and the plates were incubated over night at 4° C. The plates were then washed 5 times with water and 100 μl of a Sulforhodamine B solution ([…]) was added to each well. The plates were then incubated for 10 minutes at room temperature before removal of unbound dye by washing with 1% acetic acid. The bound dye was solubilized with 10 mM Trizma base and the absorbance read at OD520.
(§4) Inhibitory activity of the compounds was calculated as % inhibition of cell proliferation compared to cells treated with the solvent (DMSO).

The subject of a further assay is A-431 [B-Raf wildtype]. Nature of the assay: Anti-proliferative activity, SRB assay, 72 hours. Type of assay: cell-based. Particulars: Homo sapiens, read-out: CELLULAR IC50 [μM] A-431 [B-Raf wildtype]. The procedure:
as §1, §2, §3, §4
Background: The SRB assay estimates cell density from bound dye.

Another assay deals with T1, p38 (Homo sapiens, UniProt Q16539).
T1 construct: purchased Proteros biostructures GmbH (selectivity panel service)
Briefly: Biochemical inhibition, standard selectivity panel (Proteros). On the set-up: dose or concentration left out as unconfirmed. The procedure: (§5) For example, selected compound of the present invention were tested in a standard selectivity panel including c-Raf, p38, and 22 other kinases (Proteros biostructures GmbH, Martinsried/Munich, Germany), under conditions of non-disclosure, non-dissemination and non-use.
(§6) In brief, selected compounds of the present invention were tested […] in triplicates against c-Raf, p38 as well as against Ab1, Akt1, Aur A, c-Kit, c-Raf, Cdk1/CycB, Chk1, FGFR3, Flt3, Fyn, IGF1-R, INSR, Lyn, MAPK-ERK1, PAK-4, PKCalpha, Plk1, Ret, ROCK2, RSK 1, c-Src, TIE2, and VEGF-R2.

A further assay addresses T2, C-Raf (Homo sapiens, UniProt P04049).
T2 construct: purchased Proteros biostructures GmbH (selectivity panel service)
The description is as above. Further details: dose or concentration left out as unconfirmed. The procedure:
as §5, §6

This note sets out measurements from US8232283B2, “Raf inhibitors” (Forma Therapeutics, Inc., priority 2008, dated 2012).

The structures appear in SMILES notation.

T2 sequence (P04049 whole entry): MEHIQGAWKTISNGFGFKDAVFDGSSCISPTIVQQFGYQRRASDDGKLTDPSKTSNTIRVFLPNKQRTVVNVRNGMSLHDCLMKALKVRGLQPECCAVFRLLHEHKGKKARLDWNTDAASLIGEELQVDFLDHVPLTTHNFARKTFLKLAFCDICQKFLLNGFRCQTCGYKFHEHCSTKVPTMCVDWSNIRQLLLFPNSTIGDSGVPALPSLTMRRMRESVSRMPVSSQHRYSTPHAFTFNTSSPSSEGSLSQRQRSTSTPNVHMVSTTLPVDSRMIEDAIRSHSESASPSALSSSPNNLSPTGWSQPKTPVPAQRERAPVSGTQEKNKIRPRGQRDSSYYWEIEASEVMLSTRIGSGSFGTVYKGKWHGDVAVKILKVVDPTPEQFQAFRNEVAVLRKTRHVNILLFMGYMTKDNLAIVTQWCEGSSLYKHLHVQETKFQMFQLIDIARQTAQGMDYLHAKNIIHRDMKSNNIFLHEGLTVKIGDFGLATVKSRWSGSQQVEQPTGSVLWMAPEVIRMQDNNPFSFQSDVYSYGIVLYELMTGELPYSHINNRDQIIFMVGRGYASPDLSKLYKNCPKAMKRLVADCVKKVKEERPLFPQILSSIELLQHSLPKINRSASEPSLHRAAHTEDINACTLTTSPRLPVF
T1 sequence (Q16539 whole entry): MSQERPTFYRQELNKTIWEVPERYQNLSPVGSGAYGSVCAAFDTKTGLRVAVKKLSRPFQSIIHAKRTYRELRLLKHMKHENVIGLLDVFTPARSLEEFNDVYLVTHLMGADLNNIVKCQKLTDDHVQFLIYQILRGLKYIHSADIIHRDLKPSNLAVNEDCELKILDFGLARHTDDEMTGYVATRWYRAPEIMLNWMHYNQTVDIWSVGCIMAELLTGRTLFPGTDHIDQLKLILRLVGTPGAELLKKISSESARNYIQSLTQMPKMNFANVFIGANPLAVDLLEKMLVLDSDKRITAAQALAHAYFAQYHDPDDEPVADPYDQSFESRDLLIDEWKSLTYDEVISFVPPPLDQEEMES

Take `COn1c(=O)c(-c2cc(NC(=O)c3ccc(F)c(C(F)(F)F)c3)ccc2Cl)cc2cnc(NCCN(C)C)nc21` [Compound 17, N-{4-Chloro-3-[2-(2-dimethylamino-ethylamino)-8-methoxy-7-oxo-7,8-dihydro-pyrido[2,3-d]pyrimidin-6-yl]-phenyl)-4-fluoro-3-trifluoromethyl-benzamide]: the values for the IC50 (in assay [1]; in the assay on A-431 [B-Raf wildtype]) were less than 5 µM and greater than 10 µM, respectively. The inhibition at p38 and at C-Raf was greater than 70% throughout.

As for `COn1c(=O)c(-c2cc(NC(=O)c3cccc(Cl)c3)ccc2Cl)cc2cnc(NCCN(C)C)nc21` [Compound 18, 3-Chloro-N-{4-chloro-3-[2-(2-dimethylamino-ethylamino)-8-methoxy-7-oxo-7,8-dihydro-pyrido[2,3-d]pyrimidin-6-yl]-phenyl}-benzamide], the IC50 was less than 10 µM in assay [1] and greater than 10 µM with A-431 [B-Raf wildtype]. Also, the inhibition against p38 and at C-Raf was greater than 70% in each case.

Consider `COn1c(=O)c(-c2cc(NC(=O)c3cc(C(F)(F)F)ccc3F)ccc2Cl)cc2cnc(NCCN(C)C)nc21` [Compound 23, N-{4-Chloro-3-[2-(2-dimethylamino-ethylamino)-8-methoxy-7-oxo-7,8-dihydro-pyrido[2,3-d]pyrimidin-6-yl]-phenyl]-2-fl uoro-5-trifluoromethyl-benzamide], for which the IC50 in assay [1] was less than 5 µM; in the assay with A-431 [B-Raf wildtype] it was greater than 10 µM. Further, the inhibition against p38 and against C-Raf was greater than 70% each time.

On to `COn1c(=O)c(-c2cc(NC(=O)c3cccc(C(F)(F)F)c3)ccc2Cl)cc2cnc(NCCN(C)C)nc21` [Compound 24, N-{4-Chloro-3-[2-(2-dimethylamino-ethylamino)-8-methoxy-7-oxo-7,8-dihydro-pyrido[2,3-d]pynmidin-6-yl]-phenyl}-3-trifluoromethyl-benzamide], for which the IC50 is less than 5 µM in assay [1] and greater than 10 µM with A-431 [B-Raf wildtype]. For the same molecule, the inhibition against p38 and at C-Raf was greater than 70% throughout.

In the case of `COn1c(=O)c(-c2cc(NC(=O)c3ccnc(N4CCOCC4)c3)ccc2Cl)cc2cnc(NCCN(C)C)nc21` [Compound 26, N-{4-Chloro-3-[2-(2-dimethylamino-ethylamino)-8-methoxy-7-oxo-7,8-dihydro-pyrido[2,3-d]pyrimidin-6-yl]-phenyl)-2-morpholin-4-yl-isonicotinamide], the IC50 in assay [1] was less than 10 µM; in the assay with A-431 [B-Raf wildtype], greater than 10 µM. Moreover, the inhibition at p38 and against C-Raf was greater than 70% each time.

Turning to `COn1c(=O)c(-c2cc(NC(=O)c3ccc(Oc4ccccc4)cc3)ccc2Cl)cc2cnc(NCCN(C)C)nc21` [Compound 27, N-{4-Chloro-3-[2-(2-dimethylamino-ethylamino)-8-methoxy-7-oxo-7,8-dihydro-pyrido[2,3-d]pyrimidin-6-yl]-phenyl}-4-phenoxy-benzamide], the figures for the IC50 (in assay [1]; with A-431 [B-Raf wildtype]) were less than 5 µM and less than 10 µM, respectively. The inhibition against p38 and against C-Raf was greater than 70% throughout.

For the molecule `COn1c(=O)c(-c2cc(NC(=O)c3cc(F)cc(C(F)(F)F)c3)ccc2Cl)cc2cnc(NCCN(C)C)nc21` [Compound 28], the values for the IC50 (in assay [1]; in the assay with A-431 [B-Raf wildtype]) were less than 5 µM and greater than 10 µM, respectively. Also, the inhibition against p38 and against C-Raf was greater than 70% in each case.

Regarding `COn1c(=O)c(-c2cc(NC(=O)c3ccc(Cl)c(OC(F)(F)F)c3)ccc2Cl)cc2cnc(NCCN(C)C)nc21` [Compound 30, 4-Chloro-N-(4-chloro-3-[2-(2-dimethylamino-ethylamino)-8-methoxy-7-oxo-7,8-dihydro-pyrido[2,3-d]pyrimidin-6-yl]-phenyl}-3-trifluoromethoxy-benzamide], the figures for the IC50 (in assay [1]; in the assay with A-431 [B-Raf wildtype]) were less than 5 µM and greater than 10 µM, respectively. Further, the inhibition against p38 and at C-Raf was greater than 70% each time.

For `COn1c(=O)c(-c2cc(NC(=O)c3cc(C(C)(C)C)nn3-c3ccccc3)ccc2Cl)cc2cnc(NCCN(C)C)nc21` [Compound 31, 5-tert-Butyl-2-phenyl-2H-pyrazole-3-carboxylic acid {4-chloro-3-[2-(2-dimethylamino-ethylamino)-8-methoxy-7-oxo-7,8-dihydro-pyrido[2,3-d]pyrimidin-6-yl]-phenyl}-amide], the figures for the IC50 (in assay [1]; in the assay on A-431 [B-Raf wildtype]) were less than 5 µM and less than 10 µM, respectively. Further, the inhibition against p38 was greater than 70%; against C-Raf it was roughly 70%.

In the case of `COn1c(=O)c(-c2cc(NC(=O)c3ccc(OCc4cccc(F)c4)c(Cl)c3)ccc2Cl)cc2cnc(NCCN(C)C)nc21` [Compound 32, 3-Chloro-N-{4-chloro-3-[2-(2-dimethylamino-ethylamino)-8-methoxy-7-oxo-7,8-dihydro-pyrido[2,3-d]pyrimidin-6-yl]-phenyl}-4-(3-fluoro-benzyloxy)-benzamide], the IC50 in assay [1] was less than 5 µM; in the assay with A-431 [B-Raf wildtype], less than 10 µM. For the same molecule, the inhibition at p38 and against C-Raf was greater than 70% throughout.

In the case of `COn1c(=O)c(-c2cc(NC(=O)c3ccc(C(C)(C)C)cc3)ccc2Cl)cc2cnc(NCCN(C)C)nc21` [Compound 37, 4-tert-Butyl-N-{4-chloro-3-[2-(2-dimethylamino-ethylamino)-8-methoxy-7-oxo-7,8-dihydro-pyrido[2,3-d]pyrimidin-6-yl]-phenyl)-benzamide], the IC50 was less than 5 µM in assay [1] and less than 10 µM in the assay with A-431 [B-Raf wildtype]. Further, the inhibition on p38 and against C-Raf was greater than 70% in each case.

Regarding `COn1c(=O)c(-c2cc(NC(=O)Nc3ccc(C(F)(F)F)cc3)ccc2Cl)cc2cnc(NCCN(C)C)nc21` [Compound 41, 1-{4-Chloro-3-[2-(2-dimethylamino-ethylamino)-8-methoxy-7-oxo-7,8-dihydro-pyrido[2,3-d]pyrimidin-6-yl]-phenyl}-3-(4-trifluoromethyl-phenyl)-urea], the IC50 was less than 5 µM in assay [1] and less than 10 µM in the assay on A-431 [B-Raf wildtype]. The inhibition at p38 and on C-Raf was greater than 70% each time.

For the molecule `COn1c(=O)c(-c2cc(NC(=O)Nc3ccc(F)c(C(F)(F)F)c3)ccc2Cl)cc2cnc(NCCN(C)C)nc21` [Compound 42, 1-{4-Chloro-3-[2-(2-dimethylamino-ethylamino)-8-methoxy-7-oxo-7,8-dihydro-pyrido[2,3-d]pyrimidin-6-yl]-phenyl}-3-(4-fluoro-3-trifluoromethyl-phenyl)-urea], the half-maximal inhibitory concentration (IC50) in assay [1] was less than 5 µM; with A-431 [B-Raf wildtype] it was less than 10 µM. The inhibition against p38 and against C-Raf was greater than 70% in each case.

As for `COn1c(=O)c(-c2cc(NC(=O)Nc3cccc(Cl)c3)ccc2Cl)cc2cnc(NCCN(C)C)nc21` [Compound 43, 1-{4-Chloro-3-[2-(2-dimethylamino-ethylamino)-8-methoxy-7-oxo-7,8-dihydro-pyrido[2,3-d]pyrimidin-6-yl]-phenyl}-3-(3-chloro-phenyl)-urea], the IC50 in assay [1] was less than 5 µM; with A-431 [B-Raf wildtype], greater than 10 µM. For the same molecule, the inhibition against p38 and at C-Raf was greater than 70% each time.

As to `COn1c(=O)c(-c2cc(NC(=O)Nc3ccc(C(C)(C)C)cc3)ccc2Cl)cc2cnc(NCCN(C)C)nc21` [Compound 44, 1-(4-tert-Butyl-phenyl)-3-{4-chloro-3-[2-(2-dimethylamino-ethylamino)-8-methoxy-7-oxo-7,8-dihydro-pyrido[2,3-d]pyrimidin-6-yl]-phenyl}-urea], the IC50 (in assay [1]; with A-431 [B-Raf wildtype]) was less than 5 µM each time. In addition, the inhibition against p38 and against C-Raf was greater than 70% in each case.

As usually defined, the IC50 is the point on the concentration scale where inhibition reaches its midpoint. The term inhibition denotes the percentage by which the read-out fell short of the control.
